From US6995177B1, “HCV NS3 protease inhibitors” (Istituto Di Ricerche Di Biologia Molecolare P Angeletti SPA, priority 1999, dated 2006)

Target: HCV NS3 protease (Hepatitis C virus genotype 1b, UniProt P26662)
Experiment: Microplate protease activity assay
Format: biochemical, hepatitis C virus (J strain)
Settings: inhibition of HCV NS3 protease, co-factor Pep4AK, tritiated substrate
Protocol: Microplate Protease Activity Assay
The HCV-protease (J strain) was stored until use at −80° C. in 250 mM NaCl, phosphate buffer pH 6.5, 50% glycerol, 0.1% CHAPS. As protease co-factor the peptide Pep4AK (KKKGSVVIVGRIILSGR-NH2), spanning the central hydrophobic core (residues 21–34) of the NS4A protein, with a three-lysine tag at the N-terminus to increase solubility (Bianchi, E. et al., Biochemistry 36, 7890–7897;1997), was used. Pep4AK was stored at −80° C. in DMSO; the tritiated substrate Ac-DEMEECASHLPYK (^3H-Ac)-NH2, and the corresponding cold substrate Ac-DEMEECASHLPYK(Ac)-NH2 were stored at −80° C. in DMSO/DTT.
The assay was run in Costar polypropylene 96-well plates. The composition of the reaction mixture was as follows (100 μl): • Glycerol 15% • DTT 30 mM • Hepes pH 7,5 50 mM • Triton X-100 0.05% • Protease 10 nM • hot+cold substrate 5 μM (300.000 cpm) • Pep4AK 15 μM
Test compounds were dissolved—in DMSO (final concentration 10% DMSO)
Pep4AK was pre-incubated with protease for 5 min prior to addition of substrate mix. In these conditions, the substrate Km was 7±2 μM. Test compounds were added at 8 different concentrations in 8 different wells. Plates were shaken for 30 minutes at room temperature, then an ionic exchange resin (100 μl of 20% Fractogel TSK-DEAE® 650S, Merck) was added to capture unprocessed substrate and plates shaken for another 10 minutes. After allowing the resin to settle by centrifugation, 30 μl of the reaction mix were transferred in a 96-well plate (Picoplate, Packard), admixed with 250 μl of scintillation cocktail Microscint 40, and the radioactivity measured in a scintillation Packard Top Count β-counter.
IC50 was calculated from the test compound dilution curve, as the concentration of compound giving 50% inhibitions.

Sequence of HCV NS3 protease (P26662 1027-1206, other chains not shown): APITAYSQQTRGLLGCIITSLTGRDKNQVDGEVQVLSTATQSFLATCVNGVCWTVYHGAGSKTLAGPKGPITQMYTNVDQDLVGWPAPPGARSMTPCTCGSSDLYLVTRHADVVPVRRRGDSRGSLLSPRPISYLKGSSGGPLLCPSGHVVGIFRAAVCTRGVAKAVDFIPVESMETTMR

CC(C)C[C@H](NC(=O)[C@H](CC(=O)O)NC(=O)[C@H](CC1CCCCC1)NC(=O)[C@@H]1CCCC[C@H]1C(=O)O)C(N)=O (single isomer, unassigned) [Example 1, R1R-cyclohexane-1,2-dicarboxylate monoamide of Cha-Asp-Leu-NH2]
IC50 (Table I): 15 µM

CC(C)CC(NC(=O)C(CC(=O)O)NC(=O)C(NC(=O)C1CCCCC1C(=O)O)c1cccc(OC(=O)CC(c2ccccc2)c2ccccc2)c1)C(N)=O (single isomer, unassigned) [Example 8]
IC50 (Table II): 13 µM

O=C(O)CCN(CCC(c1ccccc1)c1ccccc1)C(=O)[C@@H](NC(=O)[C@@H]1CCCC[C@H]1C(=O)O)c1ccccc1 (single isomer, unassigned) [Example 19]
IC50 (Table IV): 14 µM

CC(C)C[C@H](NC(=O)[C@H](CC(=O)O)NC(=O)[C@H](CC1CCCCC1)NC(=O)[C@H]1CCCC[C@@H]1C(=O)O)C(N)=O [Example 2, SS-cyclohexane-1,2-dicarboxylate monoamide of Cha-Asp-Leu-NH2]
IC50 (Table I): 54 µM

CCNC(=O)[C@H](CC(C)C)NC(=O)[C@H](CC(=O)O)NC(=O)[C@H](CC1CCCCC1)NC(=O)C1=C(C(=O)O)CCCC1 [Example 4]
IC50 (Table I): 38 µM

CC(C)C[C@H](NC(=O)[C@H](CC(=O)O)NC(=O)[C@H](CC1CCCCC1)NC(=O)[C@@H]1CCC[C@H]1C(=O)O)C(N)=O [Example 5]
IC50 (Table I): 60 µM

CC(C)C[C@H](NC(=O)[C@H](CC(=O)O)NC(=O)[C@H](CC1CCCCC1)NC(=O)c1ccccc1C(=O)O)C(N)=O [Example 6]
IC50 (Table I): 64 µM

CCNC(=O)[C@H](CC(C)C)NC(=O)[C@H](CC(=O)O)NC(=O)[C@H](CC1CCCCC1)NC(=O)c1ccccc1C(=O)O [Example 7]
IC50 (Table I): 64 µM

CC(C)C[C@H](NC(=O)[C@H](CC(=O)O)NC(=O)[C@@H](NC(=O)[C@@H]1CCCC[C@H]1C(=O)O)c1cccc(OC(=O)Cc2cccc3ccccc23)c1)C(N)=O [Example 9]
IC50 (Table II): 22 µM

CC(C)C[C@H](NC(=O)[C@H](CC(=O)O)NC(=O)[C@@H](NC(=O)[C@@H]1CCCC[C@H]1C(=O)O)c1cccc(OC(=O)Cc2ccc3ccccc3c2)c1)C(N)=O [Example 10]
IC50 (Table II): 22 µM

CC(C)C[C@H](NC(=O)[C@H](CC(=O)O)NC(=O)[C@@H](NC(=O)[C@@H]1CCCC[C@H]1C(=O)O)c1cccc(OC(=O)[C@@H]2CCCC[C@H]2C(=O)O)c1)C(N)=O [Example 11]
IC50 (Table II): 35 µM

CC(C)C[C@H](NC(=O)[C@H](CC(=O)O)NC(=O)[C@@H](NC(=O)[C@@H]1CCCC[C@H]1C(=O)O)c1ccc(Cl)cc1)C(N)=O [Example 12]
IC50 (Table II): 37 µM

CC(C)C[C@H](NC(=O)[C@H](CC(=O)O)NC(=O)[C@@H](NC(=O)[C@@H]1CCCC[C@H]1C(=O)O)c1ccccc1)C(N)=O [Example 13]
IC50 (Table II): 40 µM

CC(C)C[C@H](NC(=O)[C@H](CC(=O)O)NC(=O)[C@@H](NC(=O)[C@@H]1CCCC[C@H]1C(=O)O)c1ccccc1F)C(N)=O [Example 14]
IC50 (Table II): 47 µM

CC(C)C[C@H](NC(=O)[C@H](CC(=O)O)NC(=O)[C@@H](NC(=O)[C@@H]1CCCC[C@H]1C(=O)O)c1ccc(Br)cc1)C(N)=O [Example 15]
IC50 (Table II): 26 µM

CC(C)C[C@H](NC(=O)[C@H](CCC(=O)O)NC(=O)[C@H](CC1CCCCC1)NC(=O)[C@@H]1CCCC[C@H]1C(=O)O)C(N)=O [Example 16]
IC50 (Table III): 41 µM

CC(C)C[C@H](NC(=O)[C@H](CC(=O)O)N(C)C(=O)[C@H](CC1CCCCC1)NC(=O)[C@@H]1CCCC[C@H]1C(=O)O)C(N)=O [Example 17]
IC50 (Table III): 100 µM

CC(C)C[C@H](NC(=O)[C@H](CC(=O)O)N(C)C(=O)[C@H](CC1CCCCC1)NC(=O)c1ccccc1C(=O)O)C(N)=O [Example 18]
IC50 (Table III): 115 µM

O=C(O)CCN(CCC(c1ccccc1)c1ccccc1)C(=O)[C@H](CC1CCCCC1)NC(=O)[C@@H]1CCCC[C@H]1C(=O)O [Example 20]
IC50 (Table IV): 55 µM

O=C(O)CCN(CCC(c1ccccc1)c1ccccc1)C(=O)[C@@H](NC(=O)[C@@H]1CCCC[C@H]1C(=O)O)c1ccc(Br)cc1 [Example 21]
IC50 (Table IV): 1.7 µM

O=C(O)CCN(CCC(c1ccccc1)c1ccccc1)C(=O)[C@@H](NC(=O)[C@@H]1CCCC[C@H]1C(=O)O)c1ccc(C(F)(F)F)cc1 [Example 22]
IC50 (Table IV): 7 µM

O=C(O)CCN(CCC(c1ccccc1)c1ccccc1)C(=O)[C@@H](NC(=O)[C@@H]1CCCC[C@H]1C(=O)O)c1ccccc1F [Example 23]
IC50 (Table IV): 6 µM

CCOC(=O)CCN(CCC(c1ccccc1)c1ccccc1)C(=O)[C@@H](NC(=O)[C@H]1CCCC[C@@H]1C(=O)O)c1ccc(Br)cc1 [Example 24]
IC50 (Table IV): 60 µM

NC(=O)CCN(CCC(c1ccccc1)c1ccccc1)C(=O)[C@@H](NC(=O)[C@H]1CCCC[C@@H]1C(=O)O)c1ccc(Br)cc1 [Example 25]
IC50 (Table IV): 59 µM

COc1ccccc1CCN(CCC(=O)O)C(=O)[C@@H](NC(=O)[C@@H]1CCCC[C@H]1C(=O)O)c1ccccc1F [Example 26]
IC50 (Table IV): 44 µM

COc1cccc(CCN(CCC(=O)O)C(=O)[C@@H](NC(=O)[C@@H]2CCCC[C@H]2C(=O)O)c2ccccc2F)c1 [Example 27]
IC50 (Table IV): 66 µM

O=C(O)CCN(CCc1ccccc1Cl)C(=O)[C@@H](NC(=O)[C@@H]1CCCC[C@H]1C(=O)O)c1ccccc1F [Example 28]
IC50 (Table IV): 70 µM

O=C(O)CCN(CC(c1ccccc1)c1ccccc1)C(=O)[C@@H](NC(=O)[C@@H]1CCCC[C@H]1C(=O)O)c1ccccc1 [Example 29]
IC50 (Table IV): 39 µM

O=C(O)CCN(CCc1ccc(Cl)cc1Cl)C(=O)[C@@H](NC(=O)[C@@H]1CCCC[C@H]1C(=O)O)c1ccccc1 [Example 30]
IC50 (Table IV): 49 µM

COc1ccc(CCN(CCC(=O)O)C(=O)[C@@H](NC(=O)[C@@H]2CCCC[C@H]2C(=O)O)c2ccccc2)cc1OC [Example 31]
IC50 (Table IV): 123 µM

O=C(O)CCN(CC(c1ccccc1)c1ccccc1)C(=O)[C@H](CC1CCCCC1)NC(=O)[C@@H]1CCCC[C@H]1C(=O)O [Example 32]
IC50 (Table IV): 133 µM

O=C(O)CCN(CCc1ccc(Cl)cc1Cl)C(=O)[C@H](CC1CCCCC1)NC(=O)[C@@H]1CCCC[C@H]1C(=O)O [Example 33]
IC50 (Table IV): 177 µM

S,S-cyclohexane-1,2-dicarboxylate monoamide of Cha-Asp-Leu-NHEt [Example 3]
IC50 (Table I): 32 µM
